Measured values reported in patent US10743540B2, “3-amino-1,2,4-triazine derivatives and their use for controlling undesired plant growth” (BAYER CROPSCIENCE AKTIENGESELLSCHAFT, priority 2016, dated 2020).

Assays:
Assay type in all cases: in vivo
VIOTR: Viola tricolor = assay: Post-emergence herbicidal effect; conditions: application rate 320 g/ha, treated at one-leaf stage, assessed visually after about 3 weeks, 100% = plants have died
Procedure: (§1) [table] 2. Post-Emergence Herbicidal Effect and Crop Plant Compatibility Seeds of monocotyledonous and dicotyledonous weed and crop plants are laid out in sandy loam soil in wood-fiber pots, covered with soil and cultivated in a greenhouse under good growth conditions. 2 to 3 weeks after sowing, the test plants are treated at the one-leaf stage. The compounds of the invention, formulated in the form of wettable powders (WP) or as emulsion concentrates (EC), are then sprayed onto the green parts of the plants as aqueous suspension or emulsion at a water application rate equating to 600 to 800 L/ha with addition of 0.2% wetting agent. After the test plants have been left to stand in the greenhouse under optimal growth conditions for about 3 weeks, the action of the preparations is assessed visually in comparison to untreated controls (herbicidal action in percent (%): 100% activity=the plants have died, 0% activity=like control plants).

VERPE: Veronica persica [1] = assay: Post-emergence herbicidal effect; conditions: application rate 320 g/ha, treated at one-leaf stage, assessed visually after about 3 weeks, 100% = plants have died
Procedure: as §1

[2] = system: ECHCG: Echinochloa crus-galli; assay: Pre-emergence herbicidal effect; conditions: application rate 320 g/ha, scored visually after 3 weeks, 100% = plants have died, 0% = like control plants
Description: (§2) 1. Pre-Emergence Herbicidal Effect and Crop Plant Compatibility Seeds of monocotyledonous and dicotyledonous weed plants and crop plants are laid out in sandy loam soil in wood-fiber pots and covered with soil. The compounds of the invention, formulated in the form of wettable powders (WP) or as emulsion concentrates (EC), are then applied to the surface of the covering soil as aqueous suspension or emulsion at a water application rate equating to 600 to 800 L/ha with addition of 0.2% wetting agent. After the treatment, the pots are placed in a greenhouse and kept under good growth conditions for the trial plants. The damage to the test plants is scored visually after a test period of 3 weeks by comparison with untreated controls (herbicidal activity in percent (%): 100% activity=the plants have died, 0% activity=like control plants). [table]

[3] = system: ALOMY: Alopecurus myosuroides; assay: Pre-emergence herbicidal effect; conditions: application rate 320 g/ha, scored visually after 3 weeks, 100% = plants have died, 0% = like control plants
Description: as §2

STEME: Stellaria media [4] = assay: Pre-emergence herbicidal effect; conditions: application rate 320 g/ha, scored visually after 3 weeks, 100% = plants have died, 0% = like control plants
Description: as §2

[5] = system: MATIN: Matricaria inodora; assay: Pre-emergence herbicidal effect; conditions: application rate 320 g/ha, scored visually after 3 weeks, 100% = plants have died, 0% = like control plants
Description: as §2

[6] = system: ABUTH: Abutilon theophrasti; assay: Pre-emergence herbicidal effect; conditions: application rate 320 g/ha, scored visually after 3 weeks, 100% = plants have died, 0% = like control plants
Description: as §2

[7] = system: POLCO: Polygonum convolvulus; assay: Pre-emergence herbicidal effect; conditions: application rate 320 g/ha, scored visually after 3 weeks, 100% = plants have died, 0% = like control plants
Description: as §2

SETVI: Setaria viridis = assay: Pre-emergence herbicidal effect; conditions: application rate 320 g/ha, scored visually after 3 weeks, 100% = plants have died, 0% = like control plants
Description: as §2

VERPE: Veronica persica [8] = assay: Pre-emergence herbicidal effect; conditions: application rate 320 g/ha, scored visually after 3 weeks, 100% = plants have died, 0% = like control plants
Description: as §2

[9] = system: LOLMU: Lolium multiflorum; assay: Pre-emergence herbicidal effect; conditions: application rate 320 g/ha, scored visually after 3 weeks, 100% = plants have died, 0% = like control plants
Description: as §2

[10] = system: ECHCG: Echinochloa crus-galli; assay: Post-emergence herbicidal effect; conditions: application rate 320 g/ha, treated at one-leaf stage, assessed visually after about 3 weeks, 100% = plants have died
Procedure: as §1

[11] = system: AMARE: Amaranthus retroflexus; assay: Post-emergence herbicidal effect; conditions: application rate 320 g/ha, treated at one-leaf stage, assessed visually after about 3 weeks, 100% = plants have died
Procedure: as §1

[12] = system: ALOMY: Alopecurus myosuroides; assay: Post-emergence herbicidal effect; conditions: application rate 320 g/ha, treated at one-leaf stage, assessed visually after about 3 weeks, 100% = plants have died
Procedure: as §1

STEME: Stellaria media [13] = assay: Post-emergence herbicidal effect; conditions: application rate 320 g/ha, treated at one-leaf stage, assessed visually after about 3 weeks, 100% = plants have died
Procedure: as §1

Structure (SMILES) | Herbicidal activity with respect to [%] VIOTR (VIOTR: Viola tricolor) [%] | Herbicidal activity with respect to [%] VERPE (VERPE: Veronica persica [1]) [%] | Herbicidal activity with respect to [%] ECHCG [2] [%] | Herbicidal activity with respect to [%] ALOMY [3] [%] | Herbicidal activity with respect to [%] STEME (STEME: Stellaria media [4]) [%] | Herbicidal activity with respect to [%] MATIN [5] [%] | Herbicidal activity with respect to [%] ABUTH [6] [%] | Herbicidal activity with respect to [%] POLCO [7] [%] | Herbicidal activity with respect to [%] SETVI (SETVI: Setaria viridis) [%] | Herbicidal activity with respect to [%] VERPE (VERPE: Veronica persica [8]) [%] | Herbicidal activity with respect to [%] LOLMU [9] [%] | Herbicidal activity with respect to [%] ECHCG [10] [%] | Herbicidal activity with respect to [%] AMARE [11] [%] | Herbicidal activity with respect to [%] ALOMY [12] [%] | Herbicidal activity with respect to [%] STEME (STEME: Stellaria media [13]) [%]
Cc1ccc2c(c1)[C@H](Nc1nnc(C(=O)N(C)C)c(N)n1)[C@@H](C)C2 [Example 1.40] | 80 | 100 | 100 | 100 | 100 | 100 | 90 | 100 | 100 | 100 | 100 |  |  |  | 
CCOC(=O)c1nnc(N[C@H]2c3cc(C)ccc3C[C@@H]2C)nc1N [Example 1.21] | 80 | 100 | 100 | 90 |  | 100 |  | 100 | 100 | 80 |  | 80 | 90 | 80 | 100
Cc1ccc2c(c1)[C@H](Nc1nnc(C(N)=O)c(N)n1)CC2 [Example 1.78] | 80 |  | 100 | 100 |  | 100 | 100 | 90 | 100 |  |  |  | 80 | 100 | 100
CC(=O)c1nnc(N[C@H]2c3cc(C)ccc3C[C@@H]2C)nc1N [Example 1.26] | 100 | 100 | 100 | 100 | 100 | 100 | 100 | 100 | 100 | 100 |  | 100 | 90 |  | 100
C[S+]([O-])c1nnc(N[C@@H]2CCCc3ccccc32)nc1N (stereo partly drawn) [Example 1.65] | 80 | 80 | 100 |  | 100 | 100 | 90 | 100 | 100 | 100 | 100 |  |  |  | 100
Cc1ccc2c(c1)[C@H](Nc1nnc(S(C)(=O)=O)c(N)n1)[C@@H](C)C2 [Example 1.45] | 90 | 90 | 100 | 100 | 100 | 100 | 90 | 100 | 100 | 100 | 100 | 100 | 80 |  | 90
CS(=O)(=O)c1nnc(N[C@@H]2CCCc3ccccc32)nc1N [Example 1.66] | 90 | 100 | 100 | 80 | 100 | 100 | 100 | 100 | 100 | 100 | 100 |  |  |  | 100
CNC(=O)c1nnc(N[C@@H]2CCc3ccc(C)cc32)nc1N [Example 1.76] |  |  | 100 | 100 |  | 100 | 100 | 100 | 100 |  |  |  | 80 | 80 | 100
Nc1nc(NC2CCOc3ccccc32)nnc1C(F)(F)F (stereo not drawn) [Example 1.47, N^3-(3,4-Dihydro-2H-chromen-4-yl)-6-(trifluoromethyl)-1,2,4-triazine-3,5-diamine] | 100 | 100 | 100 | 80 | 100 | 100 |  | 100 | 100 | 100 |  | 100 | 100 | 100 | 100
